Test results as given in ChEMBL document CHEMBL6182904, “Discovery of a novel molecular glue degrader targeting GSPT1/2 with a non-IMiD-based CRBN binder” (Eur J Med Chem, 2025).
Blank lines part the entries; values can stand above or below the compound they belong to. Activity calls are given as the source filed them. No cut-off for these calls is given here.

What was measured:
[1] = target: Protein cereblon (Homo sapiens) (UniProt Q96SW2); assay: Binding affinity to CRBN (unknown origin) at 10 uM relative to control
Protein cereblon (Homo sapiens), sequence (Q96SW2 whole entry): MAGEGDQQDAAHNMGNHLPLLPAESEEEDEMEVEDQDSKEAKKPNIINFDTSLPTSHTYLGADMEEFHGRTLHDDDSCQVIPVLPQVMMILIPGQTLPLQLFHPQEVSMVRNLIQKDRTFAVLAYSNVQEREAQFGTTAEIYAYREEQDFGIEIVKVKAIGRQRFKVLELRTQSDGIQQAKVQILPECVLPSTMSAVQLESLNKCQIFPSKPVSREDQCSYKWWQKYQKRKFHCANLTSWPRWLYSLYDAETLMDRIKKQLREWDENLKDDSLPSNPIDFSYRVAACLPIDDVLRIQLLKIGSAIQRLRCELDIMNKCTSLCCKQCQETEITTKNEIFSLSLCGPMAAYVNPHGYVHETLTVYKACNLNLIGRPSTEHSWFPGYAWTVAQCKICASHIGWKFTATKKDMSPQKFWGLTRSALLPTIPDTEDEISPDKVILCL

[2] = target: T1, Protein cereblon/Eukaryotic peptide chain release factor GTP-binding subunit ERF3A (Homo sapiens, UniProt Q96SW2+P15170); assay: Molecular glue activity at human full length wild type CRBN/Hibit tagged GSPT1 in human Jurkat cells assessed as induction of GSPT1 degradation; assay type: cell-based
Target sequence in this assay (Q96SW2 whole entry): as above
Target sequence in this assay (P15170 whole entry): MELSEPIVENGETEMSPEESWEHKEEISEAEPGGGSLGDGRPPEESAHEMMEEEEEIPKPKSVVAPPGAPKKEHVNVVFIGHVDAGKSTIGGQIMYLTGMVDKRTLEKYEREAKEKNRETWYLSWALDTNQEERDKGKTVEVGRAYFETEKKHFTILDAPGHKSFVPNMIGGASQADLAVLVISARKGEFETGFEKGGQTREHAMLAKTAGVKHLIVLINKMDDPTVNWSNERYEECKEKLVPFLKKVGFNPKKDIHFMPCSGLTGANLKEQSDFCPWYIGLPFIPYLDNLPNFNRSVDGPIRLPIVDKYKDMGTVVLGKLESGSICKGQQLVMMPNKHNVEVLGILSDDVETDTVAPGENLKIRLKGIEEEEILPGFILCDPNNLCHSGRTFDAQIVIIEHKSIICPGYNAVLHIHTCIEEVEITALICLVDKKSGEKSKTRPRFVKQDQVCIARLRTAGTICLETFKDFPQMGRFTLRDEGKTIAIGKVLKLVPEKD

[3] = target: Protein cereblon/Eukaryotic peptide chain release factor GTP-binding subunit ERF3A (Homo sapiens, UniProt P15170+Q96SW2); assay: Molecular glue activity at LgBiT tagged CRBN/SmBiT tagged GSPT1 (unknown origin) transfected with HEK293T cells assessed as ternary complex formation incubated for 1 hr by Nano-Glo luminescence analysis; assay type: cell-based
[4] = Cytotoxicity against HEK293T cells assessed as cell growth inhibition measured after 72 hrs by CellTiter-Glo assay; assay type: toxicity, cell-based, HEK-293T; conditions: human
[5] = Cytotoxicity against HEK293T cells assessed as cell growth inhibition measured after 72 hrs in presence of MLN4924 by CellTiter-Glo assay; assay type: toxicity, cell-based, HEK-293T; conditions: human
Jurkat [6] = assay: Cytotoxicity against human Jurkat cells assessed as cell growth inhibition measured after 72 hrs by CellTiter-Glo assay; assay type: functional
[7] = Cytotoxicity against human Jurkat cells assessed as cell growth inhibition measured after 72 hrs in presence of MLN4924 by CellTiter-Glo assay; assay type: toxicity, cell-based
MCF7 = assay: Selectivity ratio of GI50 for cytotoxicity against human MCF7 cells assessed as cell growth inhibition measured after 72 hrs in presence of MLN4924 to GI50 for cytotoxicity against human MCF7 cells assessed as cell growth inhibition measured after 72 hrs; assay type: functional
[8] = Selectivity ratio of GI50 for cytotoxicity against human HCT-116 cells assessed as cell growth inhibition measured after 72 hrs in presence of MLN4924 to GI50 for cytotoxicity against human HCT-116 cells assessed as cell growth inhibition measured after 72 hrs; assay type: functional
[9] = Selectivity ratio of GI50 for cytotoxicity against human MIA PaCa-2 cells assessed as cell growth inhibition measured after 72 hrs in presence of MLN4924 to GI50 for cytotoxicity against human MIA PaCa-2 cells assessed as cell growth inhibition measured after 72 hrs; assay type: functional
[10] = target: T1, Protein cereblon/Eukaryotic peptide chain release factor GTP-binding subunit ERF3A; assay: Molecular glue activity at full length human wild type CRBN/HiBit tagged GSPT1 in HEK293T cells assessed as induction of GSPT1 degradation at 1 uM incubated for 12 hrs by Western blot analysis; assay type: cell-based
Target sequence in this assay (P15170 whole entry, looked up): as the sequence (P15170 whole entry) above
Target sequence in this assay (Q96SW2 whole entry, looked up): as the sequence (Q96SW2 whole entry) above

[11] = target: T1, Protein cereblon/Eukaryotic peptide chain release factor GTP-binding subunit ERF3A; assay: Molecular glue activity at full length human wild type CRBN/HiBit tagged GSPT1 in HEK293T cells assessed as induction of GSPT1 degradation at 0.1 to 10 uM incubated for 6 hrs by Western blot analysis; assay type: cell-based; conditions: dose 0.1-10 µM
Target sequence in this assay (P15170 whole entry, looked up): as the sequence (P15170 whole entry) above
Target sequence in this assay (Q96SW2 whole entry, looked up): as the sequence (Q96SW2 whole entry) above

[12] = target: T1, Protein cereblon/Eukaryotic peptide chain release factor GTP-binding subunit ERF3A; assay: Molecular glue activity at full length human wild type CRBN/HiBit tagged GSPT1 in human KG-1 cells assessed as induction of GSPT1 degradation at 0.1 to 10 uM incubated for 6 hrs by Western blot analysis; assay type: cell-based; conditions: dose 0.1-10 µM
Target sequence in this assay (P15170 whole entry, looked up): as the sequence (P15170 whole entry) above
Target sequence in this assay (Q96SW2 whole entry, looked up): as the sequence (Q96SW2 whole entry) above

[13] = target: T1, Protein cereblon/Eukaryotic peptide chain release factor GTP-binding subunit ERF3A; assay: Molecular glue activity at full length wild type human CRBN/HiBit tagged GSPT1 in human Jurkat cells assessed as induction of GSPT1 degradation at 3 uM incubated for 6 hrs by Western blot analysis; assay type: cell-based
Target sequence in this assay (P15170 whole entry, looked up): as the sequence (P15170 whole entry) above
Target sequence in this assay (Q96SW2 whole entry, looked up): as the sequence (Q96SW2 whole entry) above

[14] = target: T2, Protein cereblon/Eukaryotic peptide chain release factor GTP-binding subunit ERF3B (Homo sapiens, UniProt Q96SW2+Q8IYD1); assay: Molecular glue activity at full length human wild type CRBN/GSPT2 in human Jurkat cells assessed as induction of GSPT2 degradation at 3 uM incubated for 6 hrs by Western blot analysis; assay type: cell-based
Target sequence in this assay (Q8IYD1 whole entry, looked up): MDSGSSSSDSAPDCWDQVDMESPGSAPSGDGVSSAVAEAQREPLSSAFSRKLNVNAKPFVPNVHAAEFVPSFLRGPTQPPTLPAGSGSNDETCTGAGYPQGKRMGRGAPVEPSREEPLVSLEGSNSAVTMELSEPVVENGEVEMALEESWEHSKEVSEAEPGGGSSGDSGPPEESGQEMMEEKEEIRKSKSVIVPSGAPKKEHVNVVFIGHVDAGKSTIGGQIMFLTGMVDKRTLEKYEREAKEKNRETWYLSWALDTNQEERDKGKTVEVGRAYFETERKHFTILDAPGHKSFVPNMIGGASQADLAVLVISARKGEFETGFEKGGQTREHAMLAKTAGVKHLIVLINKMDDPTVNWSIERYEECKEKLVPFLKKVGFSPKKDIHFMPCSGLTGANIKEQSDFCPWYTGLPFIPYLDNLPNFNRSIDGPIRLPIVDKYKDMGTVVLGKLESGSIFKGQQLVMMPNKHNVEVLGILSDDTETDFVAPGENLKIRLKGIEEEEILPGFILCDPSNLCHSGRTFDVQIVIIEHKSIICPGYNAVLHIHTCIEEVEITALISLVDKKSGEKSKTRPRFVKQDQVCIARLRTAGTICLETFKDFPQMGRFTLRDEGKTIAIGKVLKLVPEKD
Target sequence in this assay (Q96SW2 whole entry, looked up): as the sequence (Q96SW2 whole entry) above

[15] = target: T1, Protein cereblon/Eukaryotic peptide chain release factor GTP-binding subunit ERF3A; assay: Molecular glue activity at full length human wild type CRBN/HiBit tagged GSPT1 in human Jurkat cells assessed as induction of GSPT1 degradation incubated for 6 hrs by Western blot analysis; assay type: cell-based
Target sequence in this assay (Q96SW2 whole entry): as above
Target sequence in this assay (P15170 whole entry): as the sequence (P15170 whole entry) above

[16] = target: T2, Protein cereblon/Eukaryotic peptide chain release factor GTP-binding subunit ERF3B; assay: Molecular glue activity at full length human wild type CRBN/GSPT2 in human Jurkat cells assessed as induction of GSPT2 degradation incubated for 6 hrs by Western blot analysis; assay type: cell-based
[17] = target: T1, Protein cereblon/Eukaryotic peptide chain release factor GTP-binding subunit ERF3A; assay: Molecular glue activity at full length wild type human CRBN/HiBit tagged GSPT1 in human Jurkat cells harbouring cullin4 knockdown assessed as induction of GSPT1 degradation at 1 uM incubated for 6 hrs by Western blot analysis; assay type: cell-based
Target sequence in this assay (P15170 whole entry, looked up): as the sequence (P15170 whole entry) above
Target sequence in this assay (Q96SW2 whole entry, looked up): as the sequence (Q96SW2 whole entry) above

Jurkat [18] = assay: Cytotoxicity against human Jurkat cells harbouring cullin4 knockdown assessed as cell growth inhibition measured after 72 hrs by CellTiter-Glo assay; assay type: functional
[19] = target: T1, Protein cereblon/Eukaryotic peptide chain release factor GTP-binding subunit ERF3A; assay: Molecular glue activity at full length human wild type CRBN/HiBit tagged GSPT1 in human Jurkat cells assessed as induction of GSPT1 degradation at 0.1 to 10 uM incubated for 6 hrs in presence of bortezomib by Western blot analysis; assay type: cell-based; conditions: dose 0.1-10 µM
Target sequence in this assay (P15170 whole entry, looked up): as the sequence (P15170 whole entry) above
Target sequence in this assay (Q96SW2 whole entry, looked up): as the sequence (Q96SW2 whole entry) above

[20] = target: T2, Protein cereblon/Eukaryotic peptide chain release factor GTP-binding subunit ERF3B; assay: Molecular glue activity at full length human wild type CRBN/HiBit tagged GSPT2 in human Jurkat cells assessed as induction of GSPT2 degradation at 0.1 to 10 uM incubated for 6 hrs in presence of bortezomib by Western blot analysis; assay type: cell-based; conditions: dose 0.1-10 µM
Target sequence in this assay (Q8IYD1 whole entry, looked up): as the sequence (Q8IYD1 whole entry, looked up) above
Target sequence in this assay (Q96SW2 whole entry, looked up): as the sequence (Q96SW2 whole entry) above

[21] = target: Protein cereblon (Homo sapiens) (UniProt Q96SW2); assay: Binding affinity to CRBN in HEK293T cells harbouring DDB1/Nanoluc assessed as decrease in BRET ratio incubated for 2 hrs NanoBRET engagement assay; assay type: cell-based; conditions: dose 1-30 µM
[22] = target: T1, Protein cereblon/Eukaryotic peptide chain release factor GTP-binding subunit ERF3A; assay: Molecular glue activity at full length human wild type CRBN/HiBit tagged GSPT1 in HEK293T cells assessed as induction of GSPT1 degradation incubated for 6 hrs by Nano-Glo luminescence assay; assay type: cell-based
Target sequence in this assay (Q96SW2 whole entry): as above
Target sequence in this assay (P15170 whole entry): as the sequence (P15170 whole entry) above

[23] = target: T1, Protein cereblon/Eukaryotic peptide chain release factor GTP-binding subunit ERF3A; assay: Molecular glue activity at full length human wild type CRBN/HiBit tagged GSPT1 in HEK293T cells assessed as induction of GSPT1 degradation incubated for 6 hrs in presence of pomalidomide by Nano-Glo luminescence assay; assay type: cell-based
Target sequence in this assay (Q96SW2 whole entry): as the sequence (Q96SW2 whole entry) above
Target sequence in this assay (P15170 whole entry): as the sequence (P15170 whole entry) above

[24] = target: T1, Protein cereblon/Eukaryotic peptide chain release factor GTP-binding subunit ERF3A; assay: Molecular glue activity at full length human wild type CRBN/HiBit tagged GSPT1 in HEK293T cells assessed as induction of GSPT1 degradation at 10 uM incubated for 6 hrs by Nano-Glo luminescence assay relative to control; assay type: cell-based
[25] = target: T1, Protein cereblon/Eukaryotic peptide chain release factor GTP-binding subunit ERF3A; assay: Molecular glue activity at full length human wild type CRBN/HiBit tagged GSPT1 in HEK293T cells assessed as induction of GSPT1 degradation at 10 uM incubated for 6 hrs in presence of pomalidomide by Nano-Glo luminescence assay relative to control; assay type: cell-based
[26] = target: Protein cereblon/Eukaryotic peptide chain release factor GTP-binding subunit ERF3A (Mus musculus) (UniProt Q8C7D2+Q8R050); assay: Molecular glue activity at Wild type CRBN/GSPT1 in mouse MEF cells harbouring CRBN knockout assessed as induction of GSPT1 degradation at 0.1 to 10 uM incubated for 24 hrs by Western blot analysis; assay type: cell-based; conditions: dose 0.1-10 µM
MEF = assay: Molecular glue activity at CRBN W386A mutant/GSPT1 in mouse MEF cells harbouring CRBN knockout assessed as induction of GSPT1 degradation at 0.1 to 10 uM incubated for 24 hrs by Western blot analysis; assay type: cell-based; conditions: dose 0.1-10 µM
[27] = target: T1, Protein cereblon/Eukaryotic peptide chain release factor GTP-binding subunit ERF3A; assay: Molecular glue activity at full length wild type CRBN/HiBit tagged GSPT1 in human Jurkat cells harbouring wildtype CRBN assessed as induction of GSPT1 degradation at 0.1 to 10 uM incubated for 6 hrs by Western blot analysis; assay type: cell-based; conditions: dose 0.1-10 µM
[28] = target: T1, Protein cereblon/Eukaryotic peptide chain release factor GTP-binding subunit ERF3A; assay: Molecular glue activity at full length wild type CRBN/HiBit tagged GSPT1 in human Jurkat cells harbouring CRBN knockout assessed as induction of GSPT1 degradation at 0.1 to 10 uM incubated for 6 hrs by Western blot analysis; assay type: cell-based; conditions: dose 0.1-10 µM
[29] = target: T2, Protein cereblon/Eukaryotic peptide chain release factor GTP-binding subunit ERF3B; assay: Molecular glue activity at full length wild type CRBN/HiBit tagged GSPT2 in human Jurkat cells harbouring wildtype CRBN assessed as induction of GSPT2 degradation at 0.1 to 10 uM incubated for 6 hrs by Western blot analysis; assay type: cell-based; conditions: dose 0.1-10 µM
Target sequence in this assay (Q8IYD1 whole entry, looked up): as the sequence (Q8IYD1 whole entry, looked up) above
Target sequence in this assay (Q96SW2 whole entry, looked up): as the sequence (Q96SW2 whole entry) above

[30] = target: T2, Protein cereblon/Eukaryotic peptide chain release factor GTP-binding subunit ERF3B; assay: Molecular glue activity at full length wild type CRBN/HiBit tagged GSPT2 in human Jurkat cells harbouring CRBN knockout assessed as induction of GSPT2 degradation at 0.1 to 10 uM incubated for 6 hrs by Western blot analysis; assay type: cell-based; conditions: dose 0.1-10 µM
Target sequence in this assay (Q8IYD1 whole entry, looked up): as the sequence (Q8IYD1 whole entry, looked up) above
Target sequence in this assay (Q96SW2 whole entry, looked up): as the sequence (Q96SW2 whole entry) above

[31] = target: T1, Protein cereblon/Eukaryotic peptide chain release factor GTP-binding subunit ERF3A; assay: Molecular glue activity at human full length wildtype CRBN/HiBiT tagged GSPT1 in human MIA PaCa-2 cells transfected with CRBN-TurboID-V5 assessed as ternary complex formation at 1 uM preincubated for 4 hrs followed by bortezomib addition and measured after 2 hrs by TurboID analysis; assay type: cell-based; conditions: time 6.0 hrs
[32] = target: T2, Protein cereblon/Eukaryotic peptide chain release factor GTP-binding subunit ERF3B; assay: Molecular glue activity at human full length wildtype CRBN/HiBiT tagged GSPT2 in human MIA PaCa-2 cells transfected with CRBN-TurboID-V5 assessed as ternary complex formation at 1 uM preincubated for 4 hrs followed by bortezomib addition and measured after 2 hrs by TurboID analysis; assay type: cell-based; conditions: time 6.0 hrs
Target sequence in this assay (Q8IYD1 whole entry, looked up): as the sequence (Q8IYD1 whole entry, looked up) above
Target sequence in this assay (Q96SW2 whole entry, looked up): as the sequence (Q96SW2 whole entry) above

Compound: COC(=O)c1nc(NC(=O)Cn2cnc(C)c(C)c2=O)sc1CCc1cccc(Cl)c1
Activity [1]: inactive
DC50 [2]: > 10 µM

Compound: COC(=O)c1nc(NC(=O)Cn2cncc(C)c2=O)sc1CCc1ccccc1
Activity [1]: inactive
DC50 [2]: > 10 µM

Compound: COC(=O)c1nc(NC(=O)Cn2cnc(C)c(C)c2=O)sc1CCc1ccccc1
EC50 [3]: 11.4 µM
GI50 at 72 h [4]: 0.8 µM
GI50 at 72 h [5]: 18.4 µM
GI50 (Jurkat [6]): 0.5 µM
GI50 at 72 h [7]: 1.4 µM
RatioGI50 (MCF7): 3
RatioGI50 [8]: 3
RatioGI50 [9]: 3
Activity [10]: Active
Activity [11]: Active
Activity [12]: Active
Activity [13]: Active
Activity [14]: Active
DC50 [15]: 0.127 µM
DC50 [16]: 0.0422 µM
Activity [17]: inactive
GI50 (Jurkat [18]): 3.2 µM
Activity [19]: inactive
Activity [20]: inactive
Activity [21]: Dose-dependent-effect
DC50 [22]: 0.2 µM
DC50 [23]: 45 µM
Emax [24]: 98.2%
Emax [25]: 31.7%
Activity [26]: Active
Activity (MEF): inactive
Activity [1]: 47.6%
DC50 [2]: 1.2 µM
Activity [27]: Active
Activity [28]: inactive
Activity [29]: Active
Activity [30]: inactive
Activity [31]: inactive
Activity [32]: inactive

Compound: Cc1ccc(NC(=O)NCc2ccc3c(c2)CN(C2CCC(=O)NC2=O)C3=O)cc1Cl (stereo unspecified)
EC50 [3]: 0.1 µM

Compound: COC(=O)c1nc(NC(=O)Cn2cnc(C)c(C)c2=O)sc1CCc1ccc(Cl)cc1
Activity [1]: inactive
DC50 [2]: > 10 µM

Compound: COC(=O)c1nc(NC(=O)Cn2cnccc2=O)sc1CCc1ccccc1
Activity [1]: 13.8%
DC50 [2]: 4 µM

Compound: COC(=O)c1nc(NC(=O)Cn2cnc(C)c(C)c2=O)sc1Cc1ccccc1
Activity [1]: -5.6%
DC50 [2]: > 10 µM

The remaining lines, values ahead:

Activity [1]: -14.4%
DC50 [2]: > 10 µM
Compound: COC(=O)c1nc(NC(=O)Cn2cnc3c(c2=O)CCC3)sc1CCc1ccccc1

Activity [1]: -9%
DC50 [2]: > 10 µM
Compound: CNC(=O)c1nc(NC(=O)Cn2cnc(C)c(C)c2=O)sc1CCc1ccccc1

Activity [1]: inactive
DC50 [2]: > 10 µM
Compound: COC(=O)c1nc(NC(=O)Cn2cnc(C)cc2=O)sc1CCc1ccccc1
